Laboratory results reported in patent US20230033285A1, “Protease Inhibitors for Treatment of Coronavirus Infections” (The Scripps Research Institute, priority 2021, published 2023).

What follows are molecules tested on SARS-CoV-2 (assay: microbe, parasite or virus in culture). Conditions: Severe acute respiratory syndrome coronavirus 2, HeLa-ACE2, 24 h, read-out: EC50, μM (Hela).
Assay type: cell-based
With `CC1(C)[C@@H]2[C@@H](C(=O)N[C@H](C=O)C[C@@H]3CCNC3=O)N(C(=O)COc3ccc(OC(F)(F)F)cc3)C[C@@H]21` [Compound 36, (1R,2S,5S)-6,6-dimethyl-N-((S)-1-oxo-3-((S)-2-oxopyrrolidin-3-yl)propan-2-yl)-3-(2-(4-(trifluoromethoxy)phenoxy)acetyl)-3-azabicyclo[3.1.0]hexane-2-carboxamide] the EC50 was 0.2 to 0.5 µM.

Same assay, conditions: Severe acute respiratory syndrome coronavirus 2; HeLa-ACE2 cells infected with SARS-CoV-2, 24 h, immunofluorescence of infected cells; read-out: EC50, μM (Hela)
`Cc1cccc(C)c1NC(=O)C(=O)N[C@@H](CC(C)C)C(=O)N[C@@H](C[C@@H]1CCNC1=O)C(=O)CO` [Compound 12, N^1-(2,6-dimethylphenyl)-N^2-((S)-1-(((S)-4-hydroxy-3-oxo-1-((S)-2-oxopyrrolidin-3-yl)butan-2-yl)amino)-4-methyl-1-oxopentan-2-yl)oxalamide] was tested, and the EC50 was greater than 1 µM.
Molecule `CC(C)C[C@H](NC(=O)C(=O)Nc1ccccc1F)C(=O)N[C@H](C=O)C[C@@H]1CCCNC1=O` [Compound 41, N^1-(2-fluorophenyl)-N^2-((S)-4-methyl-1-oxo-1-(((S)-1-oxo-3-((S)-2-oxopiperidin-3-yl)propan-2-yl)amino)pentan-2-yl)oxalamide] has an EC50 of 0.05 to 0.2 µM.
`CC1(C[C@H](NC(=O)C(=O)NC23CC(F)(C2)C3)C(=O)N[C@@H](C[C@@H]2CCNC2=O)C(=O)CO)CCC1` [Compound 97, N^1-(3-fluorobicyclo[1.1.1]pentan-1-yl)-N^2-((S)-1-(((S)-4-hydroxy-3-oxo-1-((S)-2-oxopyrrolidin-3-yl)butan-2-yl)amino)-3-(1-methylcyclobutyl)-1-oxopropan-2-yl)oxalamide] gave an EC50 of 0.05 to 0.2 µM.
With `CC1(C)[C@@H]2[C@@H](C(=O)N[C@H](C#N)C[C@@H]3CCCNC3=O)N(C(=O)c3ccnc(C(F)(F)F)c3)C[C@@H]21` [Compound 130, (1R,2S,5S)-N-((S)-1-cyano-2-((S)-2-oxopiperidin-3-yl)ethyl)-6,6-dimethyl-3-(2-(trifluoromethyl)isonicotinoyl)-3-azabicyclo[3.1.0]hexane-2-carboxamide] the EC50 was greater than 1 µM.
For `CC(C)(C)C[C@H](NC(=O)C(=O)Nc1cccc(C(F)(F)F)n1)C(=O)N[C@@H](C[C@@H]1CCCNC1=O)C(=O)CO` [Compound 112], the EC50 was 0.5 to 1 µM.
`CC(C)(C)C[C@H](NC(=O)C(=O)NC12CC(F)(C1)C2)C(=O)N[C@@H](C[C@@H]1CCNC1=O)C(=O)CO` [Compound 22, N^1-(3-fluorobicyclo[1.1.1]pentan-1-yl)-N^2-((S)-1-(((S)-4-hydroxy-3-oxo-1-((S)-2-oxopyrrolidin-3-yl)butan-2-yl)amino)-4,4-dimethyl-1-oxopentan-2-yl)oxalamide] gave an EC50 of 0.2 to 0.5 µM.
`O=C(Nc1ccccc1F)C(=O)N[C@@H](CC1CC1)C(=O)N[C@@H](C[C@@H]1CCCNC1=O)C(=O)CO` [Compound 90, N^1-((S)-3-cyclopropyl-1-(((S)-4-hydroxy-3-oxo-1-((S)-2-oxopiperidin-3-yl)butan-2-yl)amino)-1-oxopropan-2-yl)-N^2-(2-fluorophenyl)oxalamide] showed an EC50 of less than 0.05 µM.
Work on `CC(C)C[C@H](NC(=O)Nc1ccccc1F)C(=O)N[C@@H](C[C@@H]1CCNC1=O)C(=O)CO` [Compound 10, (S)-2-(3-(2-fluorophenyl)ureido)-N-((S)-4-hydroxy-3-oxo-1-((S)-2-oxopyrrolidin-3-yl)butan-2-yl)-4-methylpentanamide] yielded an EC50 greater than 1 µM.
Molecule `Cc1ccccc1NC(=O)C(=O)N1C[C@@H]2CCC[C@@H]2[C@H]1C(=O)N[C@H](C[C@@H]1CCCNC1=O)C(=O)CO` [Compound 92, (1S,3aR,6aS)-N-((R)-4-hydroxy-3-oxo-1-((S)-2-oxopiperidin-3-yl)butan-2-yl)-2-(2-oxo-2-(o-tolylamino)acetyl)octahydrocyclopenta [c]pyrrole-1-carboxamide] has an EC50 greater than 1 µM.
For `CC(C)(C)C[C@H](NC(=O)C(=O)Nc1ccc(OC(F)(F)F)cc1)C(=O)N[C@@H](C[C@@H]1CCCNC1=O)C(=O)CO` [Compound 101, N^1-((S)-1-(((S)-4-hydroxy-3-oxo-1-((S)-2-oxopiperidin-3-yl)butan-2-yl)amino)-4,4-dimethyl-1-oxopentan-2-yl)-N^2-(4-(trifluoromethoxy)phenyl)oxalamide], the EC50 was 0.05 to 0.2 µM.
With `CC(C)(C)C[C@H](NC(=O)C(=O)Nc1ccccc1OC(F)(F)F)C(=O)N[C@@H](CC1CCCNC1=O)C(=O)CO` (some centres unmarked) [Compound 98] the EC50 was less than 0.05 µM.
For `CC(C)C[C@H](NC(=O)C(=O)NC12CCC(F)(CC1)CC2)C(=O)N[C@@H](C[C@@H]1CCCNC1=O)C(=O)CO` [Compound 135, N^1-(4-fluorobicyclo[2.2.2]octan-1-yl)-N^2-((S)-1-(((S)-4-hydroxy-3-oxo-1-((S)-2-oxopiperidin-3-yl)butan-2-yl)amino)-4-methyl-1-oxopentan-2-yl)oxalamide], the EC50 was greater than 1 µM.
Work on `CC1(C)[C@@H]2[C@@H](C(=O)N[C@H](C#N)C[C@@H]3CCNC3=O)N(C(=O)C(=O)Nc3ccccc3F)C[C@@H]21` [Compound 59, (1R,2S,5S)-N-((S)-1-cyano-2-((S)-2-oxopyrrolidin-3-yl)ethyl)-3-(2-((2-fluorophenyl)amino)-2-oxoacetyl)-6,6-dimethyl-3-azabicyclo[3.1.0]hexane-2-carboxamide] yielded an EC50 greater than 1 µM.
With `CC(C)C[C@H](NC(=O)C(=O)Nc1ccccc1F)C(=O)N[C@@H](C[C@@H]1CCCNC1=O)C(=O)COC(=O)c1ccccc1C#N` [Compound 138, (S)-3-((S)-2-(2-((2-fluorophenyl)amino)-2-oxoacetamido)-4-methylpentanamido)-2-oxo-4-((S)-2-oxopiperidin-3-yl)butyl 2-cyanobenzoate] the EC50 was 0.05 to 0.2 µM.
In the case of `COc1cccc2[nH]c(C(=O)N[C@@H](CC(C)C)C(=O)N[C@@H](C[C@@H]3CCNC3=O)C(=O)CO)cc12` [Compound 1, N-((S)-1-(((S)-4-hydroxy-3-oxo-1-((S)-2-oxopyrrolidin-3-yl)butan-2-yl)amino)-4-methyl-1-oxopentan-2-yl)-4-methoxy-1H-indole-2-carboxamide], the EC50 is reported as 0.2 to 0.5 µM.
Molecule `COc1cccc2[nH]c(C(=O)N[C@@H](CC(C)C)C(=O)N[C@H](C=O)C[C@@H]3CCNC3=O)cc12` [Compound 35, 4-methoxy-N-((S)-4-methyl-1-oxo-1-(((S)-1-oxo-3-((S)-2-oxopyrrolidin-3-yl)propan-2-yl)amino)pentan-2-yl)-1H-indole-2-carboxamide] has an EC50 greater than 1 µM.
For `O=C[C@H](C[C@@H]1CCNC1=O)NC(=O)[C@@H]1[C@H]2CCC[C@H]2CN1C(=O)C(=O)Nc1ccccc1F` [Compound 44, (1S,3aR,6aS)-2-(2-((2-fluorophenyl)amino)-2-oxoacetyl)-N-((S)-1-oxo-3-((S)-2-oxopyrrolidin-3-yl)propan-2-yl)octahydrocyclopenta[c]pyrrole-1-carboxamide], the EC50 was greater than 1 µM.
`CC(C)C[C@H](NC(=O)C(=O)NCC(F)(F)F)C(=O)N[C@@H](C[C@@H]1CCNC1=O)C(=O)CO` [Compound 26] showed an EC50 greater than 1 µM.
Molecule `N#C[C@H](C[C@@H]1CCNC1=O)NC(=O)[C@@H]1[C@H]2CCC[C@H]2CN1C(=O)C(=O)Nc1ccccc1F` [Compound 62, (1S,3aR,6aS)-N-((S)-1-cyano-2-((S)-2-oxopyrrolidin-3-yl)ethyl)-2-(2-((2-fluorophenyl)amino)-2-oxoacetyl)octahydrocyclopenta[c] pyrrole-1-carboxamide] has an EC50 greater than 1 µM.
